Legend:
Type in all cases: in vivo
kochia (Kochia scoparia) = assay: Test A greenhouse herbicide test, pre- and postemergence
In short: (§1)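 Visual injury ratings, 0 (no effect) to 100 (complete control), versus untreated plants after roughly 10 d in a greenhouse. Compounds, formulated in a surfactant-containing non-phytotoxic solvent, were sprayed on loam–sand soil after sowing (pre) or on one- to two-leaf plants 2–10 cm tall (post).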

[1] = tested on: ragweed (common ragweed, Ambrosia elatior); assay: as above
In short: as §1

corn (Zea mays) = assay: as above; settings: Postemergence; for Plant response rating, Corn: 125 g ai/ha, 0 to 100 scale where 0 is no effect and 100 is complete control; for Corn plant response rating: 500 g ai/ha, 0 to 100 scale, 0 is no effect, 100 is complete control
In short: as §1

[2] = tested on: wheat (Triticum aestivum); assay: as above; settings: Postemergence; for Plant response rating, Wheat: 125 g ai/ha, 0 to 100 scale where 0 is no effect and 100 is complete control; for Wheat plant response rating: 500 g ai/ha, 0 to 100 scale, 0 is no effect, 100 is complete control
In short: as §1

[3] = tested on: ryegrass, Italian (Italian ryegrass, Lolium multiflorum); assay: as above
In short: as §1

[4] = tested on: foxtail, giant (giant foxtail, Setaria faberii); assay: as above
In short: as §1

[5] = tested on: blackgrass (Alopecurus myosuroides); assay: Test A greenhouse herbicide test, postemergence; settings: for Plant response rating, Blackgrass: 125 g ai/ha, 0 to 100 scale where 0 is no effect and 100 is complete control; for Blackgrass plant response rating: 500 g ai/ha, 0 to 100 scale, 0 is no effect, 100 is complete control
In short: (§2)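 Seedlings in a loam soil and sand mix received formulated compound postemergence at the one- to two-leaf stage. Greenhouse holding lasts approximately 10 d, then injury is scored visually relative to untreated plants, 0 meaning no effect and 100 complete control.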

[6] = tested on: galium (catchweed bedstraw, Galium aparine); assay: Test A greenhouse herbicide test, postemergence; settings: for Plant response rating, Galium: 125 g ai/ha, 0 to 100 scale where 0 is no effect and 100 is complete control; for Galium plant response rating: 500 g ai/ha, 0 to 100 scale, 0 is no effect, 100 is complete control
In short: as §2

soybean (Glycine max) = assay: Test C greenhouse herbicide test, pre- and postemergence
In short: (§3)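 Greenhouse pots; pre-em on seeded loam:sand blend, post-em on 2–18 cm plants (1–4 leaf) in sphagnum peat/vermiculite medium. Formulation: non-phytotoxic solvent + surfactant. Read-out: visual % control (0–100) vs controls at 13–15 d.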

[7] = tested on: ragweed (common ragweed, Ambrosia elatior); assay: as above
In short: as §3

[8] = tested on: galium (catchweed bedstraw, Galium aparine); assay: as above
In short: as §3

[9] = tested on: ryegrass, Italian (Italian ryegrass, Lolium multiflorum); assay: as above
In short: as §3

[10] = Postemergence, 125 g ai/ha, 0 to 100 scale where 0 is no effect and 100 is complete control
[11] = Postemergence, 500 g ai/ha, 0 to 100 scale, 0 is no effect, 100 is complete control
[12] = Preemergence, 125 g ai/ha, 0 to 100 scale where 0 is no effect and 100 is complete control
[13] = Preemergence, 500 g ai/ha, 0 to 100 scale, 0 no effect, 100 complete control
[14] = Postemergence, 31 g ai/ha, 0 to 100 scale (0 no effect, 100 complete control)
[15] = Postemergence, 125 g ai/ha, scale 0 to 100, 0 is no effect, 100 is complete control
[16] = Postemergence, 250 g ai/ha, scale 0 to 100, 0 no effect, 100 complete control, 13 to 15 d
[17] = postemergence, 62 g ai/ha, scale 0 to 100, 0 no effect, 100 complete control
[18] = Preemergence, 31 g ai/ha, scale 0 to 100, 0 is no effect, 100 is complete control
[19] = Preemergence, 62 g ai/ha, scale 0 to 100, 0 is no effect, 100 is complete control
[20] = Preemergence, 125 g ai/ha, scale 0 to 100, 0 is no effect, 100 is complete control
[21] = Preemergence, 250 g ai/ha, scale 0 to 100 (0 no effect, 100 complete control)

Cc1ccc2ccccc2c1-c1c(O)cnn(C)c1=O [Compound 56]
Plant response rating, Kochia (kochia (Kochia scoparia); [10]): 90 | Kochia plant response rating (kochia (Kochia scoparia); [11]): 100 | Kochia plant response rating (kochia (Kochia scoparia); [12]): 40 | Plant response rating, Kochia (kochia (Kochia scoparia); [13]): 90 | Plant response rating, Ragweed [1, 10]: 70 | Ragweed plant response rating [1, 11]: 90 | Ragweed plant response rating [1, 12]: 80 | Plant response rating, Ragweed [1, 13]: 90 | Plant response rating, Corn (corn (Zea mays)): 0 | Corn plant response rating (corn (Zea mays)): 10 | Plant response rating, Wheat [2]: 10 | Wheat plant response rating [2]: 50 | Plant response rating, Ryegrass, Italian [3, 10]: 90 | Ryegrass, Italian plant response rating [3, 11]: 100 | Ryegrass, Italian plant response rating [3, 12]: 100 | Plant response rating, Ryegrass, Italian [3, 13]: 100 | Plant response rating, Foxtail, Giant [4, 10]: 20 | Foxtail, Giant plant response rating [4, 11]: 60 | Foxtail, Giant plant response rating [4, 12]: 30 | Plant response rating, Foxtail, Giant [4, 13]: 70 | Plant response rating, Blackgrass [5]: 30 | Blackgrass plant response rating [5]: 50 | Plant response rating, Galium [6]: 90 | Galium plant response rating [6]: 100 | Soybean plant response rating (soybean (Glycine max); [14]): 0 | Plant response rating, Soybean (soybean (Glycine max); [15]): 0 | Plant response rating, Soybean (soybean (Glycine max); [16]): 0 | Soybean plant response rating (soybean (Glycine max); [17]): 0 | Ragweed plant response rating [7, 14]: 0 | Plant response rating, Ragweed [7, 15]: 60 | Plant response rating, Ragweed [7, 16]: 60 | Ragweed plant response rating [7, 17]: 0 | Galium plant response rating [8, 14]: 80 | Plant response rating, Galium [8, 15]: 90 | Plant response rating, Galium [8, 16]: 90 | Galium plant response rating [8, 17]: 85 | Ryegrass, Italian plant response rating [9, 14]: 40 | Plant response rating, Ryegrass, Italian [9, 15]: 65 | Plant response rating, Ryegrass, Italian [9, 16]: 90 | Ryegrass, Italian plant response rating [9, 17]: 60

Cc1ccc2ccccc2c1-c1c(O)c(C)nn(C)c1=O [Compound 59]
Plant response rating, Kochia (kochia (Kochia scoparia); [10]): 100 | Kochia plant response rating (kochia (Kochia scoparia); [11]): 100 | Kochia plant response rating (kochia (Kochia scoparia); [12]): 90 | Plant response rating, Kochia (kochia (Kochia scoparia); [13]): 90 | Plant response rating, Ragweed [1, 10]: 90 | Ragweed plant response rating [1, 11]: 100 | Ragweed plant response rating [1, 12]: 90 | Plant response rating, Ragweed [1, 13]: 100 | Plant response rating, Corn (corn (Zea mays)): 20 | Corn plant response rating (corn (Zea mays)): 60 | Plant response rating, Wheat [2]: 50 | Wheat plant response rating [2]: 100 | Plant response rating, Ryegrass, Italian [3, 10]: 100 | Ryegrass, Italian plant response rating [3, 11]: 100 | Ryegrass, Italian plant response rating [3, 12]: 90 | Plant response rating, Ryegrass, Italian [3, 13]: 100 | Plant response rating, Foxtail, Giant [4, 10]: 90 | Foxtail, Giant plant response rating [4, 11]: 100 | Foxtail, Giant plant response rating [4, 12]: 90 | Plant response rating, Foxtail, Giant [4, 13]: 100 | Plant response rating, Blackgrass [5]: 90 | Blackgrass plant response rating [5]: 100 | Plant response rating, Galium [6]: 100 | Galium plant response rating [6]: 100 | Soybean plant response rating (soybean (Glycine max); [14]): 0 | Plant response rating, Soybean (soybean (Glycine max); [15]): 10 | Plant response rating, Soybean (soybean (Glycine max); [16]): 25 | Plant response rating, Soybean (soybean (Glycine max); [18]): 0 | Plant response rating, Soybean (soybean (Glycine max); [19]): 0 | Plant response rating, Soybean (soybean (Glycine max); [20]): 15 | Soybean plant response rating (soybean (Glycine max); [21]): 25 | Soybean plant response rating (soybean (Glycine max); [17]): 15 | Ragweed plant response rating [7, 14]: 90 | Plant response rating, Ragweed [7, 15]: 95 | Plant response rating, Ragweed [7, 16]: 98 | Plant response rating, Ragweed [7, 18]: 90 | Plant response rating, Ragweed [7, 19]: 95 | Plant response rating, Ragweed [7, 20]: 100 | Ragweed plant response rating [7, 21]: 100 | Ragweed plant response rating [7, 17]: 95 | Galium plant response rating [8, 14]: 95 | Plant response rating, Galium [8, 15]: 98 | Plant response rating, Galium [8, 16]: 98 | Plant response rating, Galium [8, 18]: 98 | Plant response rating, Galium [8, 19]: 95 | Plant response rating, Galium [8, 20]: 98 | Galium plant response rating [8, 21]: 98 | Galium plant response rating [8, 17]: 98 | Ryegrass, Italian plant response rating [9, 14]: 85 | Plant response rating, Ryegrass, Italian [9, 15]: 90 | Plant response rating, Ryegrass, Italian [9, 16]: 95 | Plant response rating, Ryegrass, Italian [9, 18]: 100 | Plant response rating, Ryegrass, Italian [9, 19]: 100 | Plant response rating, Ryegrass, Italian [9, 20]: 100 | Ryegrass, Italian plant response rating [9, 21]: 100 | Ryegrass, Italian plant response rating [9, 17]: 90

From patent US10597388B2, “Pyridazinone herbicides” (FMC CORPORATION, priority 2014, dated 2020)
